Paper PMC9488889, “Insight into mode-of-action and structural determinants of the compstatin family of clinical complement inhibitors” (Nature Communications, 2022)
Where two headings read alike, the source gives them in different places. Bridge positions count the residues as written; N and C are the ends. Square brackets hold non-standard residues; d marks the D form. Peptide text beside a SMILES is read from it. Trp(1-Me) = Cn1cc(C[C@H](N)C(=O)O)c2ccccc21; NMeI = CC[C@H](C)[C@H](NC)C(=O)O; Sar = CNCC(=O)O

Target: T1, C3b (Homo sapiens, UniProt P01024)
T1 construct: the α’NT, MG6^α−8, anchor, and C-terminal complement (CTC) domains of the α-chain that are all shared between C3c and C3b; purchased Complement Technology (Tyler, TX, USA)
T1 sequence (P01024 23-667 limits assumed): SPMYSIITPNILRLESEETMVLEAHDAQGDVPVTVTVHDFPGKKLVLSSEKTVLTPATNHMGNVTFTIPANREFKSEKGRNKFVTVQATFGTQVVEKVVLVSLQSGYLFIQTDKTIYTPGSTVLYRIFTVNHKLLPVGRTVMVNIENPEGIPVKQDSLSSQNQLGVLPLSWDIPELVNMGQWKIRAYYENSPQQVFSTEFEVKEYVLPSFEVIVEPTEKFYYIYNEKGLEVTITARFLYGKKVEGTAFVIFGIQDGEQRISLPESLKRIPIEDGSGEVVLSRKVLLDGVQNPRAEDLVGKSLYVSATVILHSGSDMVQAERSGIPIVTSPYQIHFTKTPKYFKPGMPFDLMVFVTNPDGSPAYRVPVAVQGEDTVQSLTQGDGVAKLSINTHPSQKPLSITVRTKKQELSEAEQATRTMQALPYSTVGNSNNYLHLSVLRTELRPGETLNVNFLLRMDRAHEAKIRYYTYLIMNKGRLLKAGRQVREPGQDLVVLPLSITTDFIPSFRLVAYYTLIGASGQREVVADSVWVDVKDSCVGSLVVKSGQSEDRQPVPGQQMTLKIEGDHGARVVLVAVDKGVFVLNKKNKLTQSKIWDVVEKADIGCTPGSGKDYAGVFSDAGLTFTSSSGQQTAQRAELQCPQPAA
T1 sequence (P01024 749-1663 limits assumed): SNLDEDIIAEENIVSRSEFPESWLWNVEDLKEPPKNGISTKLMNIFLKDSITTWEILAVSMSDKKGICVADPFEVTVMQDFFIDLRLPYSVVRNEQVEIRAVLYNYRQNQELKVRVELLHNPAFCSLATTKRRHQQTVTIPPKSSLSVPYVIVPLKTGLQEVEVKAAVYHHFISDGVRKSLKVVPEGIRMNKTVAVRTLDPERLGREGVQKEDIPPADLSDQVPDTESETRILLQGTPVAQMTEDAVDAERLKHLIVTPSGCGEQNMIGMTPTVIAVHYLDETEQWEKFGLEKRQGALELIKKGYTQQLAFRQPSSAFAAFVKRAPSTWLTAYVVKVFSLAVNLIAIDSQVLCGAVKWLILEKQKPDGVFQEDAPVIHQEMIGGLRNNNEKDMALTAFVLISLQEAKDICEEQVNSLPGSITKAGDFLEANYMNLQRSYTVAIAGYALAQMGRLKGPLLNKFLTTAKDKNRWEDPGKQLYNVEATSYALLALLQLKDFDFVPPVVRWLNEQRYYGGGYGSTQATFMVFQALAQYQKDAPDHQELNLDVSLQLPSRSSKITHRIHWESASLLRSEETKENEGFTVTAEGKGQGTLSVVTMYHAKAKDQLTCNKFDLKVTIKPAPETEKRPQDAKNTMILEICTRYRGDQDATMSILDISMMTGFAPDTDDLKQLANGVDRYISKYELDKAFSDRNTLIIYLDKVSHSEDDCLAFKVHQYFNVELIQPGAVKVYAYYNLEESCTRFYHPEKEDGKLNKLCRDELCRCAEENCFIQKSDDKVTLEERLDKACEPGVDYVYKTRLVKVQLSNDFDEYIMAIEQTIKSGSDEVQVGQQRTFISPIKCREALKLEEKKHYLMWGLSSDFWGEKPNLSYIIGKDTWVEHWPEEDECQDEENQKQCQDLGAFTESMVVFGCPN
Test: SPR kinetic binding studies on immobilized C3b
Experimental: All compstatin analogues were characterized concerning affinity and kinetic profiles by surface plasmon resonance (SPR) using a Biacore T200 instrument (Cytiva, Piscataway, USA). Experiments were run at 25 °C in HBST buffer (10 mM HEPES, 150 mM NaCl, 0.05% Tween-20, pH 7.4). C3b was immobilized on a carboxymethyl dextran hydrogel chip (CMD200; XanTec, Düsseldorf, Germany) using standard amine coupling in sodium acetate buffer pH 4.5 at a flow rate of 10 µl/min. Immobilization densities of 8000 and 4000 resonance units (RU) were achieved on separate flow cells. A reference flow cell was activated with the same method (NHS/EDC). All active sites were inactivated and blocked with ethanolamine. A single cycle approach at a flow rate of 30 µl/min was used for kinetic analysis by injecting five increasing concentrations of each compound (0.5–40 nM) consecutively without regeneration in-between injections. Individual injections within a cycle were 120 s long with a 60 sec dissociation phase between injections. After the highest concentration of each derivative, a dissociation period of 6,000–14,400 sec was added to ensure complete dissociation in absence of suitable regeneration method. […] Signals from the reference cell from an ensemble of buffer blank injections were subtracted to correct for buffer effects and injection artefacts. Kinetic data was processed with the Biacore T200 Software (version 3.1; Cytiva) using a single-cycle evaluation setup by global fitting each data set to a 1:1 Langmuir binding model. Association and dissociation rate constants (ka and kd, respectively) were fitted, and the equilibration constant KD was calculated based on the following equation: KD = kd/ka. Each assay was performed at least twice and in duplicate injections.

[1] = Table 1, amine-reactive immobilized C3b, 25 °C, average±SD of three independent SPR experiments, read-out: KD
[2] = pH 7.4, read-out: ka, Dataset 1
[3] = pH 7.4, read-out: ka, Dataset 3
[4] = source data of Table 1, single SPR dataset 1, read-out: KD, Dataset 1
[5] = source data of Table 1, single SPR dataset 2, read-out: KD, Dataset 2
[6] = source data of Table 1, single SPR dataset 3, read-out: KD, Dataset 3
[7] = pH 7.4, read-out: ka, Dataset 2

Row | Kd [1] | kon (pH 7.4, read-out: ka) | kon [2] | kon [3] | Kd [4] | Kd [5] | Kd [6] | kd (Table 1, amine-reactive immobilized C3b, 25 °C, average±SD of three independent SPR experiments) | kon [7] | kd, Dataset 1 (source data of Table 1, single SPR dataset 1) | kd, Dataset 2 (source data of Table 1, single SPR dataset 2) | kd, Dataset 3 (source data of Table 1, single SPR dataset 3) | SMILES
1 | 3.8 ± 0.5 nM | 400000 M⁻¹ s⁻¹ | 470000 M⁻¹ s⁻¹ | 290000 M⁻¹ s⁻¹ | 4.11 nM | 4.27 nM | 3.1 nM | – | – | – | – | – | CC[C@H](C)[C@H](NC(=O)[C@H](C)N)C(=O)N[C@H]1CSSC[C@@H](C(=O)N(C)[C@H](C(N)=O)[C@@H](C)CC)NC(=O)[C@H](CCCNC(=N)N)NC(=O)[C@H](Cc2c[nH]cn2)NC(=O)[C@H](C)NC(=O)CN(C)C(=O)[C@H](Cc2c[nH]c3ccccc23)NC(=O)[C@H](CC(=O)O)NC(=O)[C@H](CCC(N)=O)NC(=O)[C@H](Cc2cn(C)c3ccccc23)NC(=O)[C@H](C(C)C)NC1=O [Cp40 y1A] (H-AICV[Trp(1-Me)]QDW[Sar]AHRC[NMeI]-NH2; disulfide 3-13)
2 | 2.9 ± 0.6 nM | 800000 ± 100000 M⁻¹ s⁻¹ | 840000 M⁻¹ s⁻¹ | 650000 M⁻¹ s⁻¹ | 2.19 nM | 2.99 nM | 3.63 nM | 2.3 ± 0.4 10^−3 s^−1 | 920000 M⁻¹ s⁻¹ | 1.85 10-3 s-1 | 2.77 10-3 s-1 | 2.36 10-3 s-1 | CC[C@H](C)[C@H](NC(=O)[C@@H](C)N)C(=O)N[C@H]1CSSC[C@@H](C(=O)N(C)[C@H](C(N)=O)[C@@H](C)CC)NC(=O)[C@H](CCCNC(=N)N)NC(=O)[C@H](Cc2c[nH]cn2)NC(=O)[C@H](C)NC(=O)CN(C)C(=O)[C@H](Cc2c[nH]c3ccccc23)NC(=O)[C@H](CC(=O)O)NC(=O)[C@H](CCC(N)=O)NC(=O)[C@H](Cc2cn(C)c3ccccc23)NC(=O)[C@H](C(C)C)NC1=O [Cp40 y1a]
3 | – | 1.5e+06 ± 200000 M⁻¹ s⁻¹ | 1.41e+06 M⁻¹ s⁻¹ | 1.8e+06 M⁻¹ s⁻¹ | – | – | – | – | 1.28e+06 M⁻¹ s⁻¹ | – | – | – | CC[C@H](C)[C@H](NC(=O)[C@H](N)Cc1ccc(O)cc1)C(=O)N[C@H]1CSSC[C@@H](C(N)=O)NC(=O)[C@H](CCCNC(=N)N)NC(=O)[C@H](Cc2c[nH]cn2)NC(=O)[C@H](C)NC(=O)CN(C)C(=O)[C@H](Cc2c[nH]c3ccccc23)NC(=O)[C@H](CC(=O)O)NC(=O)[C@H](CCC(N)=O)NC(=O)[C@H](Cc2cn(C)c3ccccc23)NC(=O)[C@H](C(C)C)NC1=O [Cp40 ΔmI14] (H-[dY]ICV[Trp(1-Me)]QDW[Sar]AHRC-NH2; disulfide 3-13)
